For 53 compounds, Ki, inhibition and melting point results are on record in article PMC11243685, “Synthesis and Enzymatic Evaluation of a Small Library of Substituted Phenylsulfonamido-Alkyl Sulfamates towards Carbonic Anhydrase II” (Molecules, 2024).

The target in the first data set is T1, bovine carbonic anhydrase II (Bos taurus, UniProt P00921).
T1 construct: carbonic anhydrase II (bCAII, ≥3000 W-A units/mg from bovine erythrocytes) from Sigma; purchased Sigma (Taufkirchen, Germany); host or cells: isolated from bovine erythrocytes
T1 sequence (P00921 whole entry): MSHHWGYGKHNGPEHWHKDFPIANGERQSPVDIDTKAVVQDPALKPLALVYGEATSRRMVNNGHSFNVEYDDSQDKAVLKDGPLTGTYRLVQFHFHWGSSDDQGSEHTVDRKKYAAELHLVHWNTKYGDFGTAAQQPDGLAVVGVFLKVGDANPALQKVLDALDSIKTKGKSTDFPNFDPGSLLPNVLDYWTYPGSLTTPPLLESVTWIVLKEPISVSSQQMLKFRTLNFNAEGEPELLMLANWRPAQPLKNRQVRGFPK
The data set can be described thus: Enzymatic assay of bCA II inhibition, absorbance at 415 nm.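 Further: enzyme is carbonic anhydrase II isolated from bovine erythrocytes, with its activity followed photometrically at 415 nm.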 Type of data set: biochemical. The conditions noted are these: CA II; from Lineweaver–Burk, Dixon and Cornish Bowden plots; read-out: Inhibition constant Ki.
Method: The enzymatic assays have been performed with carbonic anhydrase II (bCAII, ≥3000 W-A units/mg from bovine erythrocytes) from Sigma (Taufkirchen, Germany) using a BMG Labtech Spectrostar Omega apparatus (BMG Labtech, Ortenberg, Germany) measuring λ = 415 nm. Conditions have been described previously [72]. Ki and Ki′ values were determined from Lineweaver–Burk, Dixon and Cornish Bowden plots, respectively.
What is called Ki is a measure of affinity in units of concentration, obtained from inhibition or displacement. `CC(C)c1cccc(S(=O)(=O)NCCOS(N)(=O)=O)c1` [40b, 2-[(3-Isopropylphenyl)sulfonamido]ethyl Sulfamate]: the Ki was 1640 ± 30 nM.
On to `Cc1ccccc1S(=O)(=O)NCCCCCCOS(N)(=O)=O` [30b, 6-[(2-Methylphenyl)sulfonamido]hexyl Sulfamate], for which the Ki is 1580 ± 20 nM.

The same data set, now with this note: bCA II; 1 μM concentration of the inhibitor; triplicate with three technical replicas.
The inhibition is how much of the control response was suppressed. The compound `NS(=O)(=O)OCCCCNS(=O)(=O)c1ccc(C2CCCCC2)cc1` [70b, 4-[(4-Cyclohexylphenyl)sulfonamido]butyl Sulfamate] came in with an inhibition at 1 µM of 34.7 ± 2.5%.
As to `NS(=O)(=O)OCCCCCNS(=O)(=O)c1ccc(C2CCCCC2)cc1` [71b, 5-[(4-Cyclohexylphenyl)sulfonamido]pentyl Sulfamate], at 1 µM the inhibition was 18.6 ± 1%.
For the compound `CC(C)c1cccc(S(=O)(=O)NCCCCCOS(N)(=O)=O)c1` [43b, 5-[(3-Isopropylphenyl)sulfonamido]pentyl Sulfamate], the inhibition at 1 µM stood at 44.4 ± 0.3%.
Turning to `NS(=O)(=O)OCCCCNS(=O)(=O)c1ccccc1` [3b, 4-(Phenylsulfonamido]butyl Sulfamate], the inhibition at 1 µM was 32.2 ± 0.3%.
Compound `CC(C)(C)c1cccc(S(=O)(=O)NCCCCOS(N)(=O)=O)c1` [60b, 4-[(3-(tert-Butyl)phenyl)sulfonamido]butyl Sulfamate] gave an inhibition at 1 µM of 43.3 ± 0.6%.
The same measure, in the same setting: next, `CC(C)(C)c1cccc(S(=O)(=O)NCCCCCCCOS(N)(=O)=O)c1` [63b, 7-[(3-(tert-Butyl)phenyl)sulfonamido]heptyl Sulfamate]: 33.3 ± 0.3%; `CC(C)c1cccc(S(=O)(=O)NCCOS(N)(=O)=O)c1` [40b, 2-[(3-Isopropylphenyl)sulfonamido]ethyl Sulfamate]: 63.7 ± 0.1%; `CC(C)c1cccc(S(=O)(=O)NCCCCCCCCOS(N)(=O)=O)c1` [46b, 8-[(3-Isopropylphenyl)sulfonamido]octyl Sulfamate]: 29.5 ± 0.9%.
Consider `Cc1ccccc1S(=O)(=O)NCCCCCOS(N)(=O)=O` [29b, 5-[(2-Methylphenyl)sulfonamido]pentyl Sulfamate], for which 1 µM produced 57.2 ± 0.7% inhibition.
On the same count and under the same terms, with `CC(C)c1cccc(S(=O)(=O)NCCCCCCOS(N)(=O)=O)c1` [44b, 6-[(3-Isopropylphenyl)sulfonamido]hexyl Sulfamate] the figure was 45.5 ± 0.7%; with `CC(C)(C)c1cccc(S(=O)(=O)NCCCOS(N)(=O)=O)c1` [59b, 3-[(3-(tert-Butyl)phenyl)sulfonamido]propyl Sulfamate], 53.9 ± 0.3%; with `NS(=O)(=O)OCCNS(=O)(=O)c1ccc(C2CCCCC2)cc1` [68b, 2-[(4-Cyclohexylphenyl)sulfonamido]ethyl Sulfamate], 52.1 ± 1.2%.
The same measure, in the same setting: next, `CC(C)(C)c1cccc(S(=O)(=O)NCCOS(N)(=O)=O)c1` [58b, 2-[(3-(tert-Butyl)phenyl)sulfonamido]ethyl Sulfamate]: 54 ± 0.9%; `CC(C)(C)c1ccccc1S(=O)(=O)NCCCCCOS(N)(=O)=O` [65b, 5-[(2-(tert-Butyl)phenyl)sulfonamido]pentyl Sulfamate]: 56.2 ± 0.8%; `NS(=O)(=O)OCCCCCCCNS(=O)(=O)c1ccc(C2CCCCC2)cc1` [73b, 7-[(4-Cyclohexylphenyl)sulfonamido]heptyl Sulfamate]: 14.8 ± 0.4%.
`CC(C)c1cccc(S(=O)(=O)NCCCCCCCOS(N)(=O)=O)c1` [45b, 7-[(3-Isopropylphenyl)sulfonamido]heptyl Sulfamate] displayed an inhibition at 1 µM of 37 ± 0.3%.
Turning to `CC(C)c1ccccc1S(=O)(=O)NCCCCCCCOS(N)(=O)=O` [47b, 7-[(2-Isopropylphenyl)sulfonamido]heptyl Sulfamate], at 1 µM the inhibition was 38.4 ± 0.2%.
Consider `NS(=O)(=O)OCCCCCCCCNS(=O)(=O)c1ccc(C2CCCCC2)cc1` [74b, 8-[(4-Cyclohexylphenyl)sulfonamido]octyl Sulfamate], for which the inhibition at 1 µM amounted to 14.2 ± 1.1%.
On the same count and under the same terms, with `Cc1ccccc1S(=O)(=O)NCCCCOS(N)(=O)=O` [28b, 4-[(2-Methylphenyl)sulfonamido]butyl Sulfamate] the figure was 37.9 ± 0.7%; with `Cc1ccccc1S(=O)(=O)NCCCCCCCCOS(N)(=O)=O` [32b, 8-[(2-Methylphenyl)sulfonamido]octyl Sulfamate], 56.2 ± 0.8%.
With `NS(=O)(=O)OCCCCCNS(=O)(=O)c1ccccc1` [4b, 5-(Phenylsulfonamido]pentyl Sulfamate], 1 µM produced 51.8 ± 0.7% inhibition.
As to `Cc1ccccc1S(=O)(=O)NCCCCCCOS(N)(=O)=O` [30b, 6-[(2-Methylphenyl)sulfonamido]hexyl Sulfamate], the inhibition at 1 µM turned out to be 68.1 ± 0.3%.
With `CC(C)(C)c1ccccc1S(=O)(=O)NCCCCCCOS(N)(=O)=O` [66b, 6-[(2-(tert-Butyl)phenyl)sulfonamido]hexyl Sulfamate], 1 µM produced 34.5 ± 0.4% inhibition.
On the same count and under the same terms, with `CC(C)c1ccccc1S(=O)(=O)NCCCCCCCCOS(N)(=O)=O` [48b, 8-[(2-Isopropylphenyl)sulfonamido]octyl Sulfamate] the figure was 34.2 ± 0.7%; with `CC(C)c1cccc(S(=O)(=O)NCCCOS(N)(=O)=O)c1` [41b, 3-[(3-Isopropylphenyl)sulfonamido]propyl Sulfamate], 50.1 ± 0.9%.
Compound `NS(=O)(=O)OCCNS(=O)(=O)c1ccccc1` [1b, 2-(Phenylsulfonamido]ethyl Sulfamate] registered an inhibition at 1 µM of 59.2 ± 0.8%.
For the compound `CC(C)(C)c1cccc(S(=O)(=O)NCCCCCOS(N)(=O)=O)c1` [61b, 5-[(3-(tert-Butyl)phenyl)sulfonamido]pentyl Sulfamate], at 1 µM the inhibition was 39.2 ± 0.1%.
Compound `Cc1ccccc1S(=O)(=O)NCCCCCCCOS(N)(=O)=O` [31b, 7-[(2-Methylphenyl)sulfonamido]heptyl Sulfamate] gave an inhibition at 1 µM of 55.6 ± 0.7%.
The compound `CC(C)c1cccc(S(=O)(=O)NCCCCOS(N)(=O)=O)c1` [42b, 4-[(3-Isopropylphenyl)sulfonamido]butyl Sulfamate] came in with an inhibition at 1 µM of 35.3 ± 0.5%.
The compound `NS(=O)(=O)OCCCCCCCCCCNS(=O)(=O)c1ccc(C2CCCCC2)cc1` [76b, 10-[(4-Cyclohexylphenyl)sulfonamido]decyl Sulfamate] registered an inhibition at 1 µM of 19.7 ± 1.6%.
`CC(C)(C)c1cccc(S(=O)(=O)NCCCCCCOS(N)(=O)=O)c1` [62b, 6-[(3-(tert-Butyl)phenyl)sulfonamido]hexyl Sulfamate] returned an inhibition at 1 µM of 41.7 ± 0.8%.
Still for that read-out and setting: with `CC(C)(C)c1ccccc1S(=O)(=O)NCCCCCCCOS(N)(=O)=O` [67b, 7-[(2-(tert-Butyl)phenyl)sulfonamido]heptyl Sulfamate] the figure was 27.5 ± 0.3%.

System in the next data set: not given
Test: not given
Conditions: not given
As a reminder, the melting point is the temperature of the solid-liquid transition. For `O=S(=O)(NCCCCCCCCO)c1ccccc1` [7a, N-(8-Hydroxyoctyl)benzene Sulfonamide], the melting point was in the range of 59 to 60 °C.
On to `O=S(=O)(NCCCCCCCCCO)c1ccc(C23CC4CC(CC(C4)C2)C3)cc1` [78a, 4-(Adamantan-1-yl)-N-(9-hydroxynonyl)benzene Sulfonamide], for which the melting point is 84 to 85 °C.
Turning to `CC(C)(C)c1ccc(S(=O)(=O)NCCCCCCCO)cc1` [54a, 4-(tert-Butyl)-N-(7-hydroxyheptyl)benzene Sulfonamide], the melting point lay within 51 to 52 °C.
For the compound `Cc1ccc(S(=O)(=O)NCCCCCO)cc1` [15a, N-(5-Hydroxypentyl)-4-methylbenzene Sulfonamide], the melting point was 60 to 61 °C.
The compound `CC(C)(C)c1ccc(S(=O)(=O)NCCCCCO)cc1` [52a, 4-(tert-Butyl)-N-(5-hydroxypentyl)benzene Sulfonamide] came in with a melting point of 53 to 54 °C.
In turn, `O=S(=O)(NCCCCCCCCO)c1ccc(C23CC4CC(CC(C4)C2)C3)cc1` [77a, 4-(Adamantan-1-yl)-N-(8-hydroxyoctyl)benzene Sulfonamide] registered a melting point of 101 to 102 °C.
In turn, `O=S(=O)(NCCCCCCCCCO)c1ccccc1` [8a, N-(9-Hydroxynonyl)benzene Sulfonamide] displayed a melting point of 40 to 41 °C.
In turn, `O=S(=O)(NCCCCCCO)c1ccc(C2CCCCC2)cc1` [72a, 4-Cyclohexyl-N-(6-hydroxyhexyl)benzene Sulfonamide] gave a melting point of 87 to 88 °C.
For `CC(C)(C)c1ccc(S(=O)(=O)NCCCCCCO)cc1` [53a, 4-(tert-Butyl)-N-(6-hydroxyhexyl)benzene Sulfonamide], the melting point fell in the range of 53 to 54 °C.
For `CC(C)(C)c1ccc(S(=O)(=O)NCCO)cc1` [49a, 4-(tert-Butyl)-N-(2-hydroxyethyl)benzene Sulfonamide], the melting point fell in the range of 75 to 77 °C.
The compound `CC(C)(C)c1ccc(S(=O)(=O)NCCCCCCCCCO)cc1` [56a, 4-(tert-Butyl)-N-(9-hydroxynonyl)benzene Sulfonamide] showed a melting point of 69 to 70 °C.
For the compound `Cc1ccccc1S(=O)(=O)NCCO` [26a, N-(2-Hydroxyethyl)-2-methylbenzene Sulfonamide], the melting point lay within 73 to 74 °C.
Regarding `O=S(=O)(NCCCCCCCCCCO)c1ccc(C23CC4CC(CC(C4)C2)C3)cc1` [79a, 4-(Adamantan-1-yl)-N-(10-hydroxydecyl)benzene Sulfonamide], the melting point lay within 76 to 79 °C.
Take `O=S(=O)(NCCO)c1ccccc1` [1a, N-(2-Hydroxyethyl)benzene Sulfonamide]: the melting point is 78 to 79 °C.
The compound `Cc1ccc(S(=O)(=O)NCCCO)cc1` [13a, N-(3-Hydroxypropyl)-4-methylbenzene Sulfonamide] registered a melting point of 55 to 57 °C.
`Cc1ccc(S(=O)(=O)NCCCCCCCCO)cc1` [18a, N-(8-Hydroxyoctyl)-4-methylbenzene Sulfonamide] came in with a melting point of 87 to 88 °C.
The same measure, in the same setting: with `O=S(=O)(NCCCCCCCCCCCCO)c1ccccc1` [11a, N-(12-Hydroxydodecyl)benzene Sulfonamide] the figure was 76 to 77 °C; with `O=S(=O)(NCCCCCCCCCCO)c1ccccc1` [9a, N-(10-Hydroxydecyl)benzene Sulfonamide], 67 to 69 °C.
The compound `O=S(=O)(NCCCCCCO)c1ccccc1` [5a, N-(6-Hydroxyhexyl)benzene Sulfonamide] showed a melting point of 40 to 42 °C.
Still for that read-out and setting: next, `CC(C)(C)c1ccc(S(=O)(=O)NCCCCCCCCO)cc1` [55a, 4-(tert-Butyl)-N-(8-hydroxyoctyl)benzene Sulfonamide]: 69 to 71 °C.
Take `Cc1ccc(S(=O)(=O)NCCCCCCO)cc1` [16a, N-(6-Hydroxyhexyl)-4-methylbenzene Sulfonamide]: the melting point was in the range of 49 to 51 °C.
